In article PMC10065799, “High-throughput profiling of sequence recognition by tyrosine kinases and SH2 domains using bacterial peptide display” (eLife, 2023):

How the values were obtained:
[1] = system: Fer kinase domain; assay: pTyr-Var library bacterial peptide display kinase screen (enrichment scores); type: biochemical, mouse; conditions: sheet "Fer";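 also: log2 fold change in enrichment of variant over reference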
[2] = system: EPHB1 kinase domain; assay: as above; type: biochemical, human; conditions: for Screen: sheet EPHB1, effect of the variant peptide relative to its reference peptide in the pTyr-Var library screen (enrichment scores); for Screen (variant relative to reference peptide, measured in the pTyr-Var library screen): sheet "EPHB1", variant seq vs reference seq, bacterial peptide display enrichment
[3] = biological target: c-Src kinase domain (Homo sapiens, UniProt P12931); assay: as above; type: biochemical; conditions: sheet "Src";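 also: log2 fold change in enrichment of variant over reference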
[4] = system: EPHB2 kinase domain; assay: as above; type: biochemical, human; conditions: sheet EPHB2
[5] = biological target: T1, c-Abl kinase domain (Mus musculus, UniProt P00520); assay: as above; type: biochemical
T1 sequence (P00520 242-493 limits assumed): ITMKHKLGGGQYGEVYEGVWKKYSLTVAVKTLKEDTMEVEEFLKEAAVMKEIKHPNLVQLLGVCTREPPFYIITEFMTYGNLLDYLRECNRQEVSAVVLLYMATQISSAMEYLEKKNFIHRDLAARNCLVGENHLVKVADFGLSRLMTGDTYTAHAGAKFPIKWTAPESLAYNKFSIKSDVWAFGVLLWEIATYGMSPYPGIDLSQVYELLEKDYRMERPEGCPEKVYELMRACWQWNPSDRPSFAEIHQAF

[6] = system: EPHB2 kinase domain; assay: ADP-Quest continuous fluorimetric kinase assay (initial rates of consensus peptides); type: biochemical, human; conditions: peptide 100 μM, kinase 10–50 nM; Figure 2C
From the text: A fluorescence-based assay from Eurofins (ADP Quest) was used to measure the Michaelis-Menten kinetic parameters for phosphorylation of the consensus peptides by purified tyrosine kinase domains. In this assay, ADP production as a result of kinase activity is coupled to the production of resorufin, a fluorophore that emits signal at 590 nm. For all experiments, the assay reactions were set up as described in the provided assay kit protocol, in a 384 well plate format. The peptide solutions were serially diluted in 100 mM Tris, pH 8.0, and the kinases were diluted to 50 nM in buffer (10 mM HEPES, 100 mM NaCl, 1 mM TCEP, 5 mM MgCl2, 10% (v/v) glycerol). The final reaction mixtures contained 10 nM of kinase with 100 μM of ATP. […] Phosphorylation reaction progress was monitored by measuring fluorescence at excitation 530 nm and emission 590 nm every 2 min at 37 °C on a plate reader (BioTek Synergy Neo 2). The fluorescence units (RFU) were converted to μM ADP by comparison to a standard curve, and the initial rates were extracted from the linear regime of the reaction progress curves. Initial rates were also measured for samples containing each kinase but lacking a peptide substrate, to account for background ATP hydrolysis. This background rate was subtracted from the rates measured in the presence of peptide. […]

[7] = biological target: T1, c-Abl kinase domain; assay: ADP-Quest continuous fluorimetric kinase assay (Michaelis-Menten parameters and initial rates); type: biochemical; conditions: peptide 100 μM, kinase 10–50 nM; Figure 2C
[8] = value of the variant peptide against its reference peptide in the pTyr-Var library screen with Fer
[9] = effect of the variant peptide relative to its reference peptide in the pTyr-Var library screen
[10] = effect of variant peptide relative to its reference peptide in the pTyr-Var library screen (enrichment scores)
[11] = variant peptide versus its reference peptide in the pTyr-Var library screen
[12] = variant peptide relative to its reference peptide, pTyr-Var library screen enrichment
[13] = sheet "Abl", effect of variant peptide relative to its reference peptide in pTyr-Var library screen (enrichment)
[14] = effect of the variant relative to its reference peptide in the pTyr-Var library screen
[15] = fig5-data2, sheet "Abl", Screen for the variant/reference peptide pair, pTyr-Var library

Substance | Screen [1, 8] | Screen [2] | Screen [3, 9] | Screen [4, 10] | further results
RGDCMYASLLG [AR_Y269_P271S] | -2.075 | -1.7 | 0.07196 | -2.657 | –
LGQRIYQFIRS [DYRK1B_Y271_Q275R_YF] | -0.8955 | -0.4041 | -0.5682 | -1.048 | –
LTERDYSFVTT [ACTG2_Y199_G198D] | 1.738 | 1.497 | – | 1.327 | –
HGEAFYSEVKA [PAK5_Y182_P187A_YF] | -0.1663 | -0.6457 | – | – | Screen [3, 11]: 0.7945
DSFATYFRWVL [H2BW1_Y84_R87W] | 2.515 | 1.664 | 2.683 | – | –
DSNLIYSQIWS [FCRL3_Y662_P660L] | -0.3219 | -0.4048 | -0.2629 | -0.3687 | –
FVFSFYHAFSG [ACTN4_Y265_S262F_YF] | – | -0.8684 | -2.513 | – | –
MSRNLYSGDCF [DDR2_Y736_Y740C_YF] | -0.7796 | -1.85 | -1.107 | -2.168 | –
LLDGEYFTLQI [TP53_Y327_P322L] | – | – | – | – | Screen [1, 12]: 0.2479; Screen (variant relative to reference peptide, measured in the pTyr-Var library screen) [2]: 0.245; Screen [3, 11]: 0.8932
RRIFSYRGHLW [VHL_Y112_H110Y_YF] | – | – | – | – | Screen [5, 13]: -4.34; Screen (variant relative to reference peptide, measured in the pTyr-Var library screen) [2]: -1.652; Screen [3, 11]: -2.013
DASENYFVMDS [TMEM240_Y77_T80M] | – | – | – | – | Screen (variant relative to reference peptide, measured in the pTyr-Var library screen) [2]: 2.244; Screen [4, 14]: 2.274
NREGVYRVFAP [TGFBI_Y537_T538R] | – | – | – | – | Screen [1, 12]: -4.485; Screen (variant relative to reference peptide, measured in the pTyr-Var library screen) [2]: -2.691; Screen [3, 11]: -0.9266; Screen [4, 14]: -2.433
PIFLFYLMDLS [ITGB2_Y131_D128Y_YF] | – | 1.841 | -0.3916 | – | –
Ac-GPPEPIYEVPPPKKKG-NH2 [EPHB2 Consensus, EPHB2 consensus substrate peptide from X5-Y-X5 screen] | – | – | – | – | phosphorylation of consensus peptide by EPHB2 (initial rate relative to cognate consensus) [6]: efficiently phosphorylated; phosphorylation of consensus peptide by c-Abl (initial rate relative to cognate consensus) [7]: efficiently phosphorylated
LRWREYQRQDF [PRKRIP1_Y90_R87W_YF] | 1.318 | 1.398 | – | 1.877 | Screen [3, 11]: 1.62
PTKNDYWAMPA [WWOX_Y287_L291P] | – | – | – | – | Screen [5, 13]: -1.562; Screen (variant relative to reference peptide, measured in the pTyr-Var library screen) [2]: 3.488; Screen [4, 14]: 3.139
LENSTYQFICV [CRB1_Y760_R764C_YF] | -1.109 | -0.5365 | -1.066 | 0.2665 | Screen [5, 15]: 0.05369
SCPANYFAFKI [FAM3D_Y65_P60S] | – | -0.6297 | -0.7557 | -0.7683 | –

Substance | Screen [1, 8] | Screen [2] | Screen [3, 9] | Screen [4, 10] | further results
NTILLYHIMAW [GPR143_Y157_S152N] | – | 0.2317 | – | 0.3631 | Screen [5, 15]: 0.6057
FADGVYLALEE [DUOX2_Y70_Q71L_YF] | – | -0.7119 | -0.6157 | -0.6876 | –
LIFVSYDDWDF [GRIN2A_Y281_S278F_YF] | -0.259 | 0.6915 | 0.7047 | 1.496 | –
LPEENYQVLCF [ARHGAP1_Y365_R369C] | 1.701 | 1.32 | 2.107 | 1.989 | –
RAILLYEFVGK [NATD1_Y45_V42I_YF] | 1.125 | 1.082 | – | 1.274 | Screen [3, 11]: 1.103
SPPILYSFFLN [FCRL6_Y239_D244N_YF] | 1.473 | 0.08597 | 0.0865 | 0.2765 | –
QNTGDYCDLFG [PTPN11_Y62_Y63C_YF] | – | -1.22 | – | -1.274 | Screen [3, 11]: -0.9656
ANAFIYDVQLP [L1CAM_Y420_V421D_YF] | – | 1.352 | 2.894 | – | –
RKVLVYDKLNV [ROR2_Y624_N620K] | – | -0.6022 | – | -1.435 | Screen [1, 12]: -1.726; Screen [3, 11]: -1.144
ITNLLYHVVSW [GBA_Y412_G416S] | – | 0.5526 | -0.28 | 0.7379 | –
LASLIYNFILF [AQP6_Y231_V234I] | 0.3008 | 0.3462 | 0.7887 | -1.512 | –
EAVSIYQFFGQ [CBLC_Y402_H405Y_YF] | -0.2521 | 2.283 | -0.1267 | 1.796 | –
FFPANYVAPMT [GRAP2_Y324_L319F] | – | 0.4698 | – | 0.7095 | –
NIEPIYLNMLL [ATR_Y317_V316I] | 0.3194 | 0.9992 | 0.03812 | 1.556 | –
HRGHLYLAIEF [TEK_Y899_Y897H_YF] | – | – | – | – | Screen (variant relative to reference peptide, measured in the pTyr-Var library screen) [2]: 0.9917; Screen [3, 11]: 2.155
FAELMYTGFWH [ASS1_Y322_V321M] | -0.4066 | 0.6121 | -0.1313 | 0.8429 | –
DNEAIYDICRC [TUBA4A_Y210_R215C] | – | – | – | – | Screen [1, 12]: -0.3932; Screen [5, 13]: -0.2438; Screen (variant relative to reference peptide, measured in the pTyr-Var library screen) [2]: -1.159; Screen [3, 11]: 0.192; Screen [4, 14]: -0.1529
NPIGLYSAEIL [LDB3_Y202_T206I] | 1.652 | 0.7886 | – | 0.5797 | –
